The subject of one data set is C2C12 cells. As to the kind of experiment: Akt phosphorylation in C2C12 cells by Western blot. The data set is classed as cell-based. The note with it: 30 min, serum-starved C2C12. Here is the method: To evaluate the impact of avarone (2) on the insulin signaling pathway, C2C12 cells were plated on P35 dishes and grown until 70% confluence. Then, cells were washed with phosphate-buffered saline (PBS) and incubated for 24 h in the presence of a starvation medium (DMEM high glucose containing 2 mM glutamine, 100 U/mL of penicillin, and 100 μg/mL of streptomycin). After this time, cells were stimulated for 30 min with 10 nM insulin (Humulin R, Ely Lilly, Italy) with avarone (2) or the insulin-avarone combination. […] Phosphorylation levels of the insulin receptor β chain and of the kinase Akt were evaluated using specific antibodies: IR β subunit, clone CT-3 (MABS65) was from Santa Cruz Biotechnology (Santa Cruz, CA, USA); pIR β subunit, Y1162/1163 (sc-25103-R) was from Merck-Millipore (Burlington, MA, USA). […] Quantitation of the images obtained was carried out using iBright Analysis Software (Thermo Fisher Scientific 168 Third Avenue Waltham, MA, USA, 02451). Glucose uptake was evaluated as previously described. […] Intrinsic and 2-NBDG-derived cell fluorescences were determined using a flow cytometer (FACSCanto II, BD Biosciences, San Jose, CA, USA). […] Quantitative analysis was carried out using FlowJo software (FlowJo^TM v10. BD FlowJo™ Software for Windows Version 10. Ashland, OR: Becton, Dickinson and Company; 2021). […]

The subject of data set [1] is human microvascular endothelial cells (HMEC-1). Details: method as in PMID 32075136. The note with it: ref [19]; read-out: IC50 cytotoxicity HMEC-1; cited from earlier work.
Data set [2] concerns human leukemia monocytic cells (THP-1). On the set-up: method as in PMID 32075136. The note with it: ref [19]; cited from earlier work.

As usually defined, the IC50 is the midpoint of a concentration-inhibition curve.

With `CC1=CCC[C@H]2[C@](C)(CC3=CC(=O)C=CC3=O)[C@@H](C)CC[C@]12C` [avarone (2), avarone], the “Akt phosphorylation levels, insulin-avarone combination” value in the data set on C2C12 cells (25 µM avarone + 10 nM insulin) is given as “values higher than those observed after treatment with insulin alone”. In addition, in the data set with C2C12 cells (25 µM avarone alone), the Akt phosphorylation levels entry is recorded as “increase in Akt phosphorylation levels similar to that induced by insulin”. Besides, the IC50 in data set [1] was 62.2 µM. The “cytotoxicity THP-1” value in data set [2] is “not cytotoxic”.

(Values after publication PMC9964544, “Evidence of Insulin-Sensitizing and Mimetic Activity of the Sesquiterpene Quinone Avarone, a Protein Tyrosine Phosphatase 1B and Aldose Reductase Dual Targeting Agent from the Marine Sponge Dysidea avara” (Pharmaceutics, 2023).)
